Where two headings read alike, the source gives them in different places.
Target: T1, human NaPi-IIb (Homo sapiens, UniProt O95436)
T1 construct: expressed in transfected cells
T1 sequence (O95436 1-690): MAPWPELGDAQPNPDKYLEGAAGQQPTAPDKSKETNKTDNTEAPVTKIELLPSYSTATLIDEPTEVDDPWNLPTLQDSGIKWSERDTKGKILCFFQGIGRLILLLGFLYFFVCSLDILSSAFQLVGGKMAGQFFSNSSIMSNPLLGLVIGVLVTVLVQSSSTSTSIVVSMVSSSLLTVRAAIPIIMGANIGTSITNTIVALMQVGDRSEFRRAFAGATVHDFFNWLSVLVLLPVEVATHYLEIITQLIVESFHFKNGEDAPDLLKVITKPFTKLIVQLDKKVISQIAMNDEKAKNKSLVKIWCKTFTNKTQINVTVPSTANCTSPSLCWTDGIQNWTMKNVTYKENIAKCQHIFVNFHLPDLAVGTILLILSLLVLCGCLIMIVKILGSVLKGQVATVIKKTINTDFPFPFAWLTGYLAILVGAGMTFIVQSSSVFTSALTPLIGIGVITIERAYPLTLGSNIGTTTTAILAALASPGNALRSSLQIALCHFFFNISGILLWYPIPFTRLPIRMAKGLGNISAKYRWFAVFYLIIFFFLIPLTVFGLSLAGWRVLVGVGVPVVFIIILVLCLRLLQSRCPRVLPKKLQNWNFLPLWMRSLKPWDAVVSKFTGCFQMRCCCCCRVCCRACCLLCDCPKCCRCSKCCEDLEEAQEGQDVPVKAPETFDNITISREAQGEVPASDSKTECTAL
Assay: Inhibitory effect on 33PO4 uptake into human NaPi-IIb-expressing CHO cells
Assay type: cell-based
Procedure, shortened: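 Stable human NaPi-IIb CHO line (G418-selected), plated and cultured overnight; ³³PO4 added in buffer A and uptake run at room temperature. Cells washed with ice-cold buffer A, then uptake counted by liquid scintillation.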

[1] = read-out: IC50 against 33PO4 uptake into human NaPi-IIb-expressing cells

| SMILES | IC50 (read-out: IC50) | IC50 [1] |
| --- | --- | --- |
| CN1N(Cc2ccc(OCCN3CCOC(=O)C3)c(F)c2F)C(=O)C(C(=O)Nc2ccc(C(F)(F)F)cc2-c2cc(C(F)(F)F)ncn2)=C(O)C12CCC2 [Example 337, 8-[[2,3-Difluoro-4-[2-(2-oxomorpholin-4-yl)ethoxy]phenyl]methyl]-5-hydroxy-9-methyl-7-oxo-N-[4-(trifluoromethyl)-2-[6-(trifluoromethyl)pyrimidin-4-yl]phenyl]-8,9-diazaspiro[3.5]non-5-ene-6-carboxamide] | 17 µM | – |
| CCOc1cccc(-c2cc(C(F)(F)F)ccc2NC(=O)C2=C(O)[C@@]3(C)CCCN3N(Cc3cccc(F)c3F)C2=O)c1OC [Example 66] | 17.3 µM | – |
| C[C@]12CCCN1N(Cc1cc(F)c(F)cc1F)C(=O)C(C(=O)Nc1cc(F)c(Br)c(F)c1)=C2O [Example 194] | 19.3 µM | – |
| CN1N(Cc2ccc(OCCN3CCC(N4CCOCC4)CC3)c(F)c2F)C(=O)C(C(=O)Nc2ccc(C(F)(F)F)cc2-c2cc(C(F)(F)F)ncn2)=C(O)C12CCC2 [Example 358] | – | 9.2 µM |
| COCCN(C)CCOCCOCCOCCOc1ccc(CN2C(=O)C(C(=O)Nc3ccc(C(F)(F)F)cc3-c3cc(C(F)(F)F)ncn3)=C(O)C3(CCCC3)N2C)c(F)c1F [Example 431] | – | 6.2 µM |
| CN1N(Cc2ccc(OCCCOC[C@H](O)CO)c(F)c2F)C(=O)C(C(=O)Nc2ccc(C(F)(F)F)cc2-c2ccc(C(F)(F)F)nc2)=C(O)C12CCCC2 [Example 386] | – | 18.9 µM |
| CN1N(Cc2ccc(OCCN3CCN(S(C)(=O)=O)CC3)c(F)c2F)C(=O)C(C(=O)Nc2ccc(C(F)(F)F)cc2-c2cc(C(F)(F)F)ncn2)=C(O)C12CCCC2 [Example 379] | – | 27.3 µM |
| CC(CN1CCOCC1)Oc1ccc(CN2C(=O)C(C(=O)Nc3ccc(C(F)(F)F)cc3-c3cc(C(F)(F)F)ncn3)=C(O)C3(CCC3)N2C)c(F)c1F (centres unmarked) [Example 408] | – | 14.6 µM |
| CN1N(Cc2cccc(F)c2F)C(=O)C(C(=O)Nc2ccc(C(F)(F)F)nc2-c2cncc(C(F)(F)F)c2)=C(O)C1(C)C [Example 306] | 8.4 µM | – |
| CN1N(Cc2ccc(OCCN3[C@@H]4COC[C@H]3C4)c(F)c2F)C(=O)C(C(=O)Nc2ccc(C(F)(F)F)cc2-c2cc(C(F)(F)F)ncn2)=C(O)C12CCCC2 [Example 380] | – | 20.2 µM |
| C[C@@]12CCCN1N(Cc1ccc(OCCN3CCOCC3)c(F)c1F)C(=O)C(C(=O)Nc1ccc(Cl)cc1-c1cc(C(F)(F)F)ncn1)=C2O [Example 107] | 25.9 µM | – |
| C[C@]12CCCN1N(Cc1c(F)cc(C#CC3(O)CCCC3)cc1F)C(=O)C(C(=O)Nc1ccc(C(F)(F)F)cc1-c1ccc(C(F)(F)F)nc1)=C2O [Example 130] | 8.9 µM | – |
| C[C@]12CCCN1N(Cc1ccc(Br)cc1F)C(=O)C(C(=O)Nc1cc(F)c(Br)c(F)c1)=C2O [Example 166, (4aR)—N-(4-Bromo-3,5-difluorophenyl)-1-[(4-bromo-2-fluorophenyl)methyl]-4-hydroxy-4a-methyl-2-oxo-6,7-dihydro-5H-pyrrolo[1,2-b]pyridazine-3-carboxamide] | 10.5 µM | – |
| CN1N(Cc2ccc(OCCN3CCOCC3)c(F)c2F)C(=O)C(C(=O)Nc2ccc(C(F)(F)F)cc2-c2ccc(C(F)(F)F)nc2)=C(O)C12CCCC2 [Example 287] | 8 µM | – |
| COCCN1CCC[C@H]1COc1ccc(CN2C(=O)C(C(=O)Nc3ccc(C(F)(F)F)cc3-c3cc(C(F)(F)F)ncn3)=C(O)C3(CCC3)N2C)c(F)c1F [Example 404, 6-[[2,3-Difluoro-4-[[(2S)-1-(2-methoxyethyl)pyrrolidin-2-yl]methoxy]phenyl]methyl]-9-hydroxy-5-methyl-7-oxo-N-[4-(trifluoromethyl)-2-[6-(trifluoromethyl)pyrimidin-4-yl]phenyl]-5,6-diazaspiro[3.5]non-8-ene-8-carboxamide] | – | 10.1 µM |
| COc1cccc(-c2cc(C(F)(F)F)ccc2NC(=O)C2=C(O)[C@@]3(C)CCCN3N(Cc3ccc(C#CCOCCOCCO)c(F)c3F)C2=O)c1OC [Example 139] | 17 µM | – |
| CN1[C@@H](C(C)(C)C)C(O)=C(C(=O)Nc2ccc(Cl)cc2-c2ccc(C(F)(F)F)nc2)C(=O)N1Cc1cccc(F)c1F [Example 239] | 8.5 µM | – |
| COCCN1CC(Oc2ccc(CN3C(=O)C(C(=O)Nc4ccc(C(F)(F)F)cc4-c4cc(C(F)(F)F)ncn4)=C(O)C4(CCC4)N3C)c(F)c2F)C1 [Example 406, 6-[[2,3-Difluoro-4-[1-(2-methoxyethyl)azetidin-3-yl]oxyphenyl]methyl]-9-hydroxy-5-methyl-7-oxo-N-[4-(trifluoromethyl)-2-[6-(trifluoromethyl)pyrimidin-4-yl]phenyl]-5,6-diazaspiro[3.5]non-8-ene-8-carboxamide] | – | 23.1 µM |
| CC(C)[C@H]1C(O)=C(C(=O)Nc2ccc(C(F)(F)F)cc2-c2cc(C(F)(F)F)ncn2)C(=O)N(Cc2cccc(F)c2F)N1C [Example 252] | 9.5 µM | – |
| COCCOc1cc(NC(=O)C2=C(O)C3(CCCC3)N(C)N(Cc3ccc(OCCN(C)CCOC)c(F)c3F)C2=O)c(-c2ncnc(C(F)(F)F)c2C)cc1C(F)(F)F [Example 439, 7-[[2,3-Difluoro-4-[2-[2-methoxyethyl(methyl)amino]ethoxy]phenyl]methyl]-10-hydroxy-N-[5-(2-methoxyethoxy)-2-[5-methyl-6-(trifluoromethyl)pyrimidin-4-yl]-4-(trifluoromethyl)phenyl]-6-methyl-8-oxo-6,7-diazaspiro[4.5]dec-9-ene-9-carboxamide] | – | 18.9 µM |
| COc1cccc(-c2cc(C(F)(F)F)ccc2NC(=O)C2=C(O)[C@@]3(C)CCCN3N(Cc3ccc(OCc4ccncc4)c(F)c3F)C2=O)c1OC [Example 151, (4aR)-1-[[2,3-Difluoro-4-(pyridin-4-ylmethoxy)phenyl]methyl]-N-[2-(2,3-dimethoxyphenyl)-4-(trifluoromethyl)phenyl]-4-hydroxy-4a-methyl-2-oxo-6,7-dihydro-5H-pyrrolo[1,2-b]pyridazine-3-carboxamide] | 8.4 µM | – |
| C[C@]12CCCN1N(Cc1cccc(F)c1F)C(=O)C(C(=O)Nc1ccc(C(F)(F)F)cc1-c1cncc(C#N)c1)=C2O [Example 82] | 11.1 µM | – |

Further compounds by falling IC50 (read-out: IC50), results first:

| IC50 (read-out: IC50) | IC50 [1] | SMILES |
| --- | --- | --- |
| 7.8 µM | – | CN(C)S(=O)(=O)c1ccc(-c2cc(C(F)(F)F)ccc2NC(=O)C2=C(O)[C@@]3(C)CCCN3N(Cc3cccc(F)c3F)C2=O)s1 [Example 71] |
| 7.3 µM | – | CN1[C@@H](C(C)(C)C)C(O)=C(C(=O)Nc2cccc(C(F)(F)F)n2)C(=O)N1Cc1cccc(F)c1F [Example 244] |
| 7.3 µM | – | C[C@]12CCCN1N(Cc1ccc(OC[C@H]3CCCO3)c(F)c1F)C(=O)C(C(=O)Nc1ccc(C(F)(F)F)cc1-c1ccc(C(F)(F)F)nc1)=C2O [Example 160] |
| 6.9 µM | – | C[C@]12CCCN1N(Cc1cccc(F)c1F)C(=O)C(C(=O)Nc1ccc(C(F)(F)F)cc1-c1ncnc(C#N)c1Cl)=C2O [Example 23] |
| 6.7 µM | – | C[C@]12CCCN1N(Cc1cccc(F)c1F)C(=O)C(C(=O)Nc1ccc(C(F)(F)F)cc1-c1cc(C#N)ncn1)=C2O [Example 100] |
| 6.5 µM | – | CN1N(Cc2cccc(F)c2F)C(=O)C(C(=O)Nc2ccc(Cl)cc2-c2ccc(C(F)(F)F)nc2)=C(O)C1(C)C [Example 309] |
| 6.3 µM | – | CSc1ccc(-c2nc(C(F)(F)F)ccc2NC(=O)C2=C(O)[C@@]3(C)CCCN3N(Cc3cccc(F)c3F)C2=O)cn1 [Example 105] |
| 6 µM | – | CN1N(Cc2cccc(F)c2F)C(=O)C(C(=O)Nc2cc(F)c(Br)c(F)c2)=C(O)C12CCC2 [Example 257] |
| 4.8 µM | – | CCOC(=O)CCCCCCN1C(=O)C(C(=O)Nc2ccc(C(F)(F)F)cc2-c2ccc(C(F)(F)F)nc2)=C(O)[C@@]2(C)CCCN12 [Example 235, Ethyl 7-[(4aR)-4-hydroxy-4a-methyl-2-oxo-3-[[4-(trifluoromethyl)-2-[6-(trifluoromethyl)pyridin-3-yl]phenyl]carbamoyl]-6,7-dihydro-5H-pyrrolo[1,2-b]pyridazin-1-yl]heptanoate] |
| 4.6 µM | – | CN1N(Cc2cccc(F)c2F)C(=O)C(C(=O)Nc2cc(C(F)(F)F)ccc2-c2ccc(C(F)(F)F)nc2)=C(O)C1(C)C [Example 307] |
| 4.3 µM | – | C[C@]12CCCN1N(Cc1cccc(OC(F)F)c1)C(=O)C(C(=O)Nc1ccc(C(F)(F)F)cc1-c1ccc(C(F)(F)F)nc1)=C2O [Example 167] |
| 4.1 µM | – | C[C@]12CCCN1N(Cc1cccc(F)c1F)C(=O)C(C(=O)Nc1ccc(Br)c(F)c1)=C2O [Example 28] |
| 3 µM | – | CN1N(Cc2cccc(F)c2F)C(=O)C(C(=O)Nc2ccc(Br)c(C(F)(F)F)n2)=C(O)C12CCCC2 [Example 263] |
| 2.4 µM | – | C[C@]12CCCN1N(Cc1cc(F)ccc1F)C(=O)C(C(=O)Nc1ccc(C(F)(F)F)cc1-c1ccc(C(F)(F)F)nc1)=C2O [Example 172] |
| 2.2 µM | – | CCCCCN1C(=O)C(C(=O)Nc2ccc(C(F)(F)F)cc2-c2ccc(C(F)(F)F)nc2)=C(O)[C@@]2(C)CCCN12 [Example 26] |
| 2 µM | – | C[C@]12CCCN1N(Cc1c(F)cccc1F)C(=O)C(C(=O)Nc1ccc(C(F)(F)F)cc1-c1ccc(C(F)(F)F)nc1)=C2O [Example 203] |
